{"source": "patent US20090022739A1", "about": "“MODULATING THE KV1.1 VOLTAGE-GATED POTASSIUM CHANNEL IN T-CELLS FOR REGULATING THE […] AND SECRETION OF TUMOR NECROSIS FACTOR ALPHA (tnf-ALPHA) AND TREATING HUMAN DISEASE OR INJURIES MEDIATED BY […] HIGH OR LOW LEVELS OF TNF-ALPHA” (priority 2005, published 2009)", "key": {"[1]": {"test_system": "NF-κB", "test": "EMSA for nuclear NF-κB in normal human T-cells", "type": "cell-based", "conditions": "100 nM DTX-K", "procedure": "EMSA for Nuclear NF-κB: Nuclear fractions from freshly-isolated normal human T-cells were collected using Nuclear Extract Kit (Active Motif, Carlsbad, Calif.), according to the manufacturer's instructions. NF-κB levels in nuclear fractions were measured using TransAM NF-κB Family Kit (Active Motif), according to the manufacturer's instructions.\nIn case of the TNF-α gene, the observed importance of NF-κB for the expression of the TNFα gene may depend on the cell type and the segment of the enhancer/promoter analyzed (Siebenlist et al, 1990). On these grounds, we investigated whether block of Kv1.1 channels in normal human T-cells (once again, in the complete absence of any other stimuli) can affect NF-κB. […]\nNuclear extracts were […] for several time periods, of which only 7 min is shown. The results, expressed as OD±SD, reflect the amount of NF-κB bound to nuclear NF-κB-binding sequences, as determined by commercially available EMSA. […]"}, "[2]": {"test_system": "NF-κB p50", "test": "Immunofluorescent histochemistry for NF-κB p50 nuclear translocation", "type": "cell-based, human", "conditions": "100 nM DTX-K; 7 minutes; FIG. 3C", "procedure": "Immunofluorescent Histochemistry for NF-κB: Freshly-isolated normal human T-cells that were pretreated or not with DTX-K (100 nM for 7, 15, 30 and 60 minutes), were pelleted (1200 g, 10 minutes, […]), suspended in PBS at 1×10^6 cells/ml, centrifuged (1200 g, 10 minutes), fixed on glass slide by cytospin (250 μl/slide, 1500 rpm, 5 minutes; Shandon Elliot, London, UK), permeablized (200 μl/slide of a solution containing 100 ml 95% methanol and 3 ml acetic acid glacial), and incubated in a blocking medium (200 μl/slide) containing 10% normal goat serum, 2% BSA, 1% glycine and 0.5% triton X-100. The cells were then stained with a rabbit anti-human NF-κB p50 polyclonal Ab (80 μl of 1:50 dilution for 30 minutes at room temperature; Santa Cruz Biotechnology, Santa Cruz, Calif.). […]\nIn case of the TNF-α gene, the observed importance of NF-κB for the expression of the TNFα gene may depend on the cell type and the segment of the enhancer/promoter analyzed (Siebenlist et al, 1990). […]\nIn the experiment the results of which are shown in FIG. 3C, normal human T-cells were either left untreated or treated with 100 nM DTX-K for 7, 15, 30 and 60 minutes (see DTX-K treatment time above each respective column). […] Representative photographs at ×100 magnification are shown for NF-κB p50 green fluorescence (upper panel), nuclei blue fluorescence (middle panel), and overlay of both (lower panel). […]"}}}
{"substance": "Dendrotoxin-K (AAKYCKLPLRIGPCKRKIPSFYYKWKAKQCLPFDYSGCGGNANRFKTIEECRRTCVG) [DTX-K]", "values": [{"measurement": "level of NF-κB present in the nuclear extracts", "setting": "[1]; 7 minutes, FIG. 3B", "result": "significantly augmented"}, {"measurement": "elevation of nuclear NF-κB at later time points", "setting": "[1]; several later time points, data not shown", "result": "no longer detected"}, {"measurement": "NF-κB p50 staining of the cell nucleus", "setting": "[2]", "result": "clearly positive for NF-κB p50"}]}
